In patent publication US12290565B2, “Methods of using anti-PSGL-1 antibodies in combination with JAK inhibitors to treat T-cell mediated inflammatory diseases or cancers” (AltruBio Inc., priority 2021, dated 2025):
Where two headings read alike, the source gives them in different places.

Legend:
[1] = tested on: activated T cells; test: T cell apoptosis assay (Annexin V/PI FACS), 15A7H and/or ruxolitinib; assay type: cell-based, human; conditions: ruxolitinib alone, 0.122-10 μM, 48 hours
Procedure: T cell stimulation was achieved through Phytohemagglutinin-L (PHA) treatment prior to the apoptosis assays described below. In brief, human blood samples used in the study were obtained from heathy human donors. Peripheral blood mononuclear cells (PBMCs) were freshly isolated from whole blood by Ficoll-Hypaque gradient centrifugation (Ficoll-Paque PLUS, GE Healthcare, Cat #17-1440-03) at 2400 revolutions per minute (rpm) for 15 minutes at room temperature. The buffy coat layer containing mononuclear cells was collected and washed 3 times with phosphate-buffered saline (PBS) to minimize platelet contamination. […]
Fluorescence-activated cell sorting (FACS) analysis using the Annexin V/propidium iodide (PI) staining method was used to determine the apoptotic rate in drug- and control-treated cells. […]
Samples were run on a flow cytometer (BD LSR scanner; BD Biosciences, San Diego), and cell viability and apoptosis were calculated using a quadrant on the Annexin-V-FITC/PI histogram. Living cells were identified as those negatively stained for both fluorescence dyes, early apoptotic cells were identified as those only Annexin-V-FITC-positive, necrotic cells were identified as those only PI-positive, and late apoptotic cells were identified as those positively stained for both fluorescence dyes. […]

[2] = tested on: xenogeneic GvHD in ASID mice engrafted with human PBMCs; test: Xenogeneic graft-versus-host disease (GvHD) mouse model, survival; assay type: in vivo; conditions: ruxolitinib 45 mg/kg oral twice daily 15 days and/or 15A7H 10 mg/kg i.v. every 3 to 4 days, 5 doses
Procedure: 8-9 weeks old female Advanced Severe Immuno-Deficiency (ASID) mice (NOD.Cg-Prkdc^scidIl2rg^tm1Wjl/YckNarl; NLAC NARLabs Taiwan) received a total body irradiation dose of 2.0 Gy and were engrafted with 3×10^6 human PBMCs by tail vein injection at 24 hours post irradiation. The mice were kept under pathogen-free conditions and reared under standardized methods as temperature set at 22±1° C. with a 12-hour daylight/dark cycle and full access to food and water. Experimental animals were randomly divided into treatment groups after receiving a minimum of 3 days of acclimatization to the environment.
Xenogeneic GvHD (xGvHD) was induced in ASID mice receiving 3×10^6 human PBMCs (n=5-7 per group). Post 72 hours of human PBMC engraftment, ruxolitinib at 45 mg/kg or vehicle was orally administered twice daily for 15 days, as well as anti-PSGL-1 15A7H antibody at 10 mg/kg or vehicle was intravenously administered every 3 to 4 days for total 5 doses. Mice were assessed for survival daily. The time of the treatment initiated was designated as Day 1.

[3] = tested on: activated T cells; test: Fixed-ratio combination cytotoxicity assay, ruxolitinib + 15A7H (Chou-Talalay, Calcusyn); assay type: cell-based, human; conditions: for EC50: Homo sapiens, T-cell; for DRIRUXO (Dose-Reduction Index): EC50 level
Procedure: T cell stimulation was achieved through Phytohemagglutinin-L (PHA) treatment prior to the apoptosis assays described below. In brief, human blood samples used in the study were obtained from heathy human donors. […] The buffy coat layer containing mononuclear cells was collected and washed 3 times with phosphate-buffered saline (PBS) to minimize platelet contamination.
Activated T cells were seeded in 96-well plates at 1-1.5×10^5 cells/mL and were treated with ruxolitinib and antibody 15A7H alone, or in combination at fixed concentration ratios. For the combination of ruxolitinib and antibody 15A7H, fixed ratios at 3.3:1 and 1.1:1 were tested on T cells from four donors. In addition, a fixed ratio of ruxolitinib and antibody 15A7H of 0.37:1 was tested on T cells from two donors.
Cell apoptosis was measured using an Annexin-V FITC Apoptosis Detection Kit (Strong Biotech, AVK250), according to the manufacturer's instructions.
Results were expressed as apoptosis fractions (fraction affected), based on the measured fluorescence counts of treated samples, compared with that of untreated controls. Seven diagonals representing various dose-effect curves with fixed drug ratios were used to measure the combination indexes (CI) for each of the combinations with Calcusyn software (Biosoft). The combinatorial effect was defined as “synergistic”, “additive” or “antagonistic” when CI was <1, 1 and >1, respectively.

[4] = tested on: activated T cells; test: Fixed-ratio combination cytotoxicity assay, ruxolitinib + LH10, c43B6 or h9F9; assay type: cell-based; conditions: antibody with cross-linker
Procedure: PBMCs were obtained from peripheral blood of healthy donors. Isolation was performed by density centrifugation of blood on Ficoll (GE Healthcare, Cat #17-1440-03). The harvested PBMCs were used for the generation of activated T cells by incubating with PHA (3 μg/mL, SIGMA, Cat: L2769-10 mg) in RPMI-1640 medium (10% FBS, 1% Penicillin/Streptomycin and 2-Mercaptoethanol) for 2 days, followed by maintenance in medium containing recombinant human Interleukin-2 (5 ng/mL, R&D Systems, Cat. #202-IL-050) for an additional between about 4˜6 days.
In addition to 15A7H, anti-PSGL-1 antibodies LH10, c43B6 and h9F9 were tested for the ability to induce cell death in activated T cells. The purpose of this study was to determine whether apoptosis inducing anti-PSGL-1 antibodies plus ruxolitinib would result in a better cytotoxic effect on activated T cells. The combinatorial effect was evaluated using Chou-Talalay median effect analysis using fixed ratios of antibodies and ruxolitinib in cytotoxicity assays. […]
Cell apoptosis was determined as described in Example 1, and the combinatorial drug effect combination indexes (CI) were analyzed using CalcuSyn (Biosoft, Ferguson, MO, USA), which allows automated simulation of synergism or antagonism, where CI<1 indicates synergy, CI=1 indicates additivity, and CI>1 indicates antagonism.

## N#CC[C@H](C1CCCC1)n1cc(-c2ncnc3[nH]ccc23)cn1 [RUXO, (R)-3-(4-(7H-pyrrolo[2,3-d]pyrimidin-4-yl)-1 H-pyrazol-1-yl)-3-cyclopentylpropanenitrile]
[1]
  increase in apoptosis over background levels: minimal or no increases in apoptosis over background levels
[2]
  effect on xenogeneic GVHD induced by human lymphocytes: ameliorated xenogeneic GVHD
[3]; donor N084, RUXO + 15A7H, ratio 1.1:1, read-out: EC50RUXO Combination Treatment
  EC50: 201 nM
[3]; donor N084, RUXO + 15A7H, ratio 3.3:1, read-out: EC50RUXO Combination Treatment
  EC50: 373 nM
[3]; donor N084, RUXO alone, section ratio 1.1:1, read-out: EC50RUXO Single Treatment
  EC50: 4220 nM
[3]; donor N084, RUXO alone, section ratio 3.3:1, read-out: EC50RUXO Single Treatment
  EC50: 4220 nM
[3]; donor N089, RUXO + 15A7H, ratio 1.1:1, read-out: EC50RUXO Combination Treatment
  EC50: 394 nM
[3]; donor N089, RUXO + 15A7H, ratio 3.3:1, read-out: EC50RUXO Combination Treatment
  EC50: 479 nM
[3]; donor N089, RUXO alone, section ratio 1.1:1, read-out: EC50RUXO Single Treatment
  EC50: 2360 nM
[3]; donor N089, RUXO alone, section ratio 3.3:1, read-out: EC50RUXO Single Treatment
  EC50: 2000 nM
[3]; donor N102, RUXO + 15A7H, ratio 0.37:1, read-out: EC50RUXO Combination Treatment
  EC50: 165 nM
[3]; donor N102, RUXO + 15A7H, ratio 1.1:1, read-out: EC50RUXO Combination Treatment
  EC50: 499 nM
[3]; donor N102, RUXO + 15A7H, ratio 3.3:1, read-out: EC50RUXO Combination Treatment
  EC50: 1150 nM
[3]; donor N102, RUXO alone, section ratio 0.37:1, read-out: EC50RUXO Single Treatment
  EC50: 10100 nM
[3]; donor N102, RUXO alone, section ratio 1.1:1, read-out: EC50RUXO Single Treatment
  EC50: 10100 nM
[3]; donor N102, RUXO alone, section ratio 3.3:1, read-out: EC50RUXO Single Treatment
  EC50: 10100 nM
[3]; donor N103, RUXO + 15A7H, ratio 0.37:1, read-out: EC50RUXO Combination Treatment
  EC50: 266 nM
[3]; donor N103, RUXO + 15A7H, ratio 1.1:1, read-out: EC50RUXO Combination Treatment
  EC50: 554 nM
[3]; donor N103, RUXO + 15A7H, ratio 3.3:1, read-out: EC50RUXO Combination Treatment
  EC50: 1010 nM
[3]; donor N103, RUXO alone, section ratio 0.37:1, read-out: EC50RUXO Single Treatment
  EC50: 9170 nM
[3]; donor N103, RUXO alone, section ratio 1.1:1, read-out: EC50RUXO Single Treatment
  EC50: 9170 nM
[3]; donor N103, RUXO alone, section ratio 3.3:1, read-out: EC50RUXO Single Treatment
  EC50: 9170 nM
[3]; donor N084, RUXO + 15A7H, ratio 1.1:1
  DRIRUXO (Dose-Reduction Index): 20.9884
[3]; donor N084, RUXO + 15A7H, ratio 3.3:1
  DRIRUXO (Dose-Reduction Index): 11.3242
[3]; donor N089, RUXO + 15A7H, ratio 1.1:1
  DRIRUXO (Dose-Reduction Index): 6.0012
[3]; donor N089, RUXO + 15A7H, ratio 3.3:1
  DRIRUXO (Dose-Reduction Index): 4.1685
[3]; donor N102, RUXO + 15A7H, ratio 0.37:1
  DRIRUXO (Dose-Reduction Index): 61.2797
[3]; donor N102, RUXO + 15A7H, ratio 1.1:1
  DRIRUXO (Dose-Reduction Index): 20.2269
[3]; donor N102, RUXO + 15A7H, ratio 3.3:1
  DRIRUXO (Dose-Reduction Index): 8.7676
[3]; donor N103, RUXO + 15A7H, ratio 0.37:1
  DRIRUXO (Dose-Reduction Index): 34.4195
[3]; donor N103, RUXO + 15A7H, ratio 1.1:1
  DRIRUXO (Dose-Reduction Index): 16.5574
[3]; donor N103, RUXO + 15A7H, ratio 3.3:1
  DRIRUXO (Dose-Reduction Index): 9.0902

B1: h9F9: anti-PSGL-1 antibody; heavy chain SEQ ID NO:35, light chain SEQ ID NO:39 (antibody)
heavy: EVQLVESGGGLVQPGGSLKLSCAASGFTFNTNAMNWVRQAPGKGLEWVARIRSKSNNYATYYADSVKDRFTISRDDSKSIIYLQMNSLKTEDTGIYYCVRGGSYWYFDVWGTGTTVTVSSASTKGPSVFPLAPCSRSTSESTAALGCLVKDYFPEPVTVSWNSGALTSGVHTFPAVLQSSGLYSLSSVVTVPSSSLGTKTYTCNVDHKPSNTKVDKRVESKYGPPCPPCPAPPVAGGPSVFLFPPKPKDTLMISRTPEVTCVVVDVSQEDPEVQFNWYVDGVEVHNAKTKPREEQFNSTYRVVSVLTVLHQDWLNGKEYKCKVSNKGLPSSIEKTISKAKGQPREPQVYTLPPSQEEMTKNQVSLTCLVKGFYPSDIAVEWESNGQPENNYKTTPPVLDSDGSFFLYSRLTVDKSRWQEGNVFSCSVMHEALHNHYTQKSLSLSLG
light: DVIMTQSPLSLPVSLGQPASISCRSSQSIVNSNGNTYLEWYLQKPGQSPRLLIYKVSNRFSGVPDRFSGSGSGTDFTLKISRVEAEDVGVYYCFQGSHVPWTFGGGTKLEIKRTVAAPSVFIFPPSDEQLKSGTASVVCLLNNFYPREAKVQWKVDNALQSGNSQESVTEQDSKDSTYSLSSTLTLSKADYEKHKVYACEVTHQGLSSPVTKSFNRGEC
[4]
  cytotoxicity ability in activated T cells: had cytotoxicity ability
